{"source": "patent US20080038289A1", "about": "“Antitumor Agent” (priority 2004, published 2008)", "key": {"[1]": {"test": "Toxicity on oral administration to mice", "format": "in vivo", "details": "orally administered, 25 mg/mouse/day"}, "[2]": {"tested_on": "IMC carcinoma tumor cells", "test": "IMC solid tumor growth in CDF1 mice, SBS orally (Example 10)", "format": "in vivo", "details": "about 15.6 mg/kg/day orally in peanut oil with 10% ethanol; three weeks after transplantation of IMC", "excerpt": "As ICR mice (Japan SLC, Inc.), 5-week old female mice were purchased, and the animals were used at 6 weeks old. Sarcoma-180 (hereinafter, S-180) tumor cells were transplanted into an abdominal cavity of the ICR mice to give an ascites, and the ascites was passaged by transplanting into other mice every 7 days. An ascites on day 7 after passage was collected, washed with a phosphate buffered saline by centrifugation, and suspended in the same buffer. The number of cells was counted, and the suspension was adjusted to have a density of 5×10^7 cells/mL. Into ICR mice at right abdominal part was subcutaneously transplanted 0.1 mL of the cell suspension, and the size of a solid tumor after 7 days was measured. […] The size of the tumor was measured after four weeks from transplantation of S-180. In addition, as the size of the tumor, a length and a width were measured, to obtain the volume according to the following equation, followed by comparison. […]\nThe tumor-suppressing activity was calculated according to the following equation. […]\nAs CDF1 mice (Japan SLC, Inc.), 6-week old female mice were purchased, and the animals were used at 7 weeks olds. […] The number of cells was counted. […] Seven days after transplantation, take of a tumor was confirmed, and the size of a solid tumor was measured. […]"}, "[3]": {"tested_on": "HL-60 cells (human leukemia cells)", "test": "Apoptosis induction in HL-60 cells, propidium iodide (Example 9)", "format": "cell-based", "details": "20 μM, incubation for 6 hours; control 9.3", "method": "HL-60 cells (human leukemia cells) were suspended in an RPMI-1640 with 10% fetal bovine serum added thereto, and the number of cells was counted. The suspension was adjusted to have a density of 5×10^5 cells/mL. Each 2 mL of the suspension was dispensed into Petri dishes. SBS prepared in Preparation Example 3 was diluted with dimethyl sulfoxide to 2 mM, and each 20 μL of the suspension was added thereto to have a final concentration of 20 μM. Only dimethyl sulfoxide was added to a control. Incubation was performed for 6 hours under the conditions of 37° C. and 5% CO2, and the cells were recovered, and washed with a phosphate buffered saline (PBS) by centrifugation. Four-percent paraformaldehyde was added to the cells, and the cells were allowed to stand at room temperature for 30 minutes to be fixed. After centrifugation, the supernatant was removed, and a PBS was added thereto, and the mixture was centrifuged and washed, and the cells were suspended in 200 μL of a PBS. Five-hundred microliters of 0.05 mg/mL propidium iodide was added thereto, and the mixture was incubated at 4° C. for 10 minutes. Thereafter, the number of whole cells and the number of cells which had undergone apoptosis were measured, and a ratio of induction of apoptosis was calculated according to the following equation (Table 11). […]"}}}
{"smiles": "C=CC(C)(O)CC/C=C(\\C)CCCC(C)(O)CCCC(C)(O)CCCC(C)(O)CCCC(C)(O)CCCC(C)(O)CCCC(C)(O)CCC=C(C)C", "note": "(stereo not shown) [SBS, hypsiziprenol A9]", "values": [{"measurement": "toxicity", "setting": "[1]", "value": "toxicity is not observed"}, {"measurement": "Tumor Volume (Mean ± SD)", "setting": "[2]", "value": "534.5 ± 92.3", "unit": "mm^3"}, {"measurement": "Tumor-Suppressing Activity (%)", "setting": "[2]", "value": 46.2, "unit": "%"}, {"measurement": "Apoptosis-Inducing Ratio (%)", "setting": "[3]", "value": 30.1, "unit": "%"}]}
